Test results published in ChEMBL document CHEMBL1201862, “PubChem BioAssay data set” (2004).
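Tested at 5 concentrations; 48 h exposure; 96-well plates; endpoints linearly interpolated, else capped at highest concentration. At the GI50, growth is halved.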 Activity calls are given as the source filed them. Rule as the data show it: active = GI50 up to about 1.1 µM and inactive = higher.

Experiments:
Test in all cases: NCI anticancer screen, dose series, 48 h
[1] = system: CAKI-1
[2] = system: RXF 393
[3] = system: MOLT-4
[4] = system: SK-OV-3
[5] = system: UO-31
[6] = system: SF-268
[7] = system: SF-539
[8] = system: HCC 2998
[9] = system: LOX IMVI
[10] = system: SK-MEL-5
[11] = system: SW-620
[12] = system: ACHN
[13] = system: Malme-3M
[14] = system: U-251
[15] = system: SF-295
[16] = system: M14
[17] = system: NCI-H226

Row | SMILES | GI50 [1] | GI50 [2] | GI50 [3] | GI50 [4] | GI50 [5] | GI50 [6] | GI50 [7] | GI50 [8] | GI50 [9] | GI50 [10] | GI50 [11] | GI50 [12] | GI50 [13] | GI50 [14] | GI50 [15] | GI50 [16] | GI50 [17]
1 | COc1ccc(C(=O)C#Cc2cnc(O)nc2O)cc1 | 9.64 µM (inactive) | 5.47 µM (inactive) | 2.34 µM (inactive) | 52.8 µM (inactive) | 17.2 µM (inactive) | 21.1 µM (inactive) | 7.33 µM (inactive) | 18.7 µM (inactive) | 3.21 µM (inactive) | 13.5 µM (inactive) | 5.69 µM (inactive) | 14.8 µM (inactive) | 5.08 µM (inactive) | 9.29 µM (inactive) | 33 µM (inactive) | 5.85 µM (inactive) | 18.7 µM (inactive)
2 | COc1ccc([C@@H]2CC(=O)NCCCCNCCCN2)cc1 | > 100 µM (inactive) | > 100 µM (inactive) | > 100 µM (inactive) | > 100 µM (inactive) | > 100 µM (inactive) | > 100 µM (inactive) | > 100 µM (inactive) | 0.0131 µM (active) |  | > 100 µM (inactive) | > 100 µM (inactive) | > 100 µM (inactive) | > 100 µM (inactive) | > 100 µM (inactive) | > 100 µM (inactive) | > 100 µM (inactive) | > 100 µM (inactive)
3 | COc1ccc(CCc2cc(OC)cc(OC)c2)cc1 | 13.2 µM (inactive) | 18 µM (inactive) | 8.17 µM (inactive) | 36.6 µM (inactive) | 52.7 µM (inactive) | 39.4 µM (inactive) | 31.6 µM (inactive) | 10.2 µM (inactive) | 38.8 µM (inactive) | 19.2 µM (inactive) | 5.93 µM (inactive) | 58.5 µM (inactive) | 33.7 µM (inactive) | 31.6 µM (inactive) | 22.6 µM (inactive) | 25.2 µM (inactive) | 30.7 µM (inactive)
4 | C=C(CS(=O)(=O)c1ccccc1)C(=O)OCC | 18 µM (inactive) | 11.7 µM (inactive) | 2.81 µM (inactive) | 14.4 µM (inactive) | 20 µM (inactive) | 19.6 µM (inactive) | 17.1 µM (inactive) | 19.4 µM (inactive) | 10.5 µM (inactive) |  | 10.5 µM (inactive) | 15.5 µM (inactive) | 16.1 µM (inactive) | 16.9 µM (inactive) | 18.1 µM (inactive) | 11.6 µM (inactive) | 25.1 µM (inactive)
5 | O=C(/C=C/c1ccccc1Cl)c1cccc2ccccc12 | 12.5 µM (inactive) | 14 µM (inactive) | 2.16 µM (inactive) | 18.9 µM (inactive) | 9.2 µM (inactive) | 12.9 µM (inactive) | 10.8 µM (inactive) | 14.5 µM (inactive) | 11.4 µM (inactive) | 19.4 µM (inactive) | 1.88 µM (inactive) | 16.7 µM (inactive) | 16.1 µM (inactive) | 2.66 µM (inactive) | 12.5 µM (inactive) | 16.3 µM (inactive) | 27.7 µM (inactive)
6 | CCOC1=C2C(C)(CCC3[C@@]4(C)C=CC(=O)C(C)(C)C4CC(O)[C@@]23C)C(c2ccoc2)C1=O (stereo partly specified) | 20.7 µM (inactive) | 16.1 µM (inactive) | 7 µM (inactive) | 26.4 µM (inactive) | 14.5 µM (inactive) | 24.2 µM (inactive) | 17.6 µM (inactive) | 16.3 µM (inactive) | 14.9 µM (inactive) | 15.2 µM (inactive) | 17.2 µM (inactive) | 18.4 µM (inactive) | > 10 µM (inactive) | 18 µM (inactive) | 12.8 µM (inactive) | 21.8 µM (inactive) | 22 µM (inactive)
7 | CCOP(=O)(OCC)/C(C#N)=C\c1ccsc1 | > 100 µM (inactive) | > 100 µM (inactive) | > 100 µM (inactive) | > 100 µM (inactive) | > 100 µM (inactive) | > 100 µM (inactive) | > 100 µM (inactive) | > 100 µM (inactive) | > 100 µM (inactive) | > 100 µM (inactive) | > 100 µM (inactive) | > 100 µM (inactive) | > 100 µM (inactive) | > 100 µM (inactive) | > 100 µM (inactive) | > 100 µM (inactive) | > 100 µM (inactive)
8 | COC(=O)[C@@H](C)[C@H]1CC[C@@](C)(CCC2=C(C)CC3C=C(C)CCC3C2(C)C)OO1 (stereo partly specified) | 1.34 µM (inactive) | 1.37 µM (inactive) | 1.04 µM (active) | 2.4 µM (inactive) | 1.45 µM (inactive) | 1.85 µM (inactive) | 1.82 µM (inactive) | 1.35 µM (inactive) |  | 1.49 µM (inactive) | 0.277 µM (active) | 1.53 µM (inactive) | 1.91 µM (inactive) | 1.42 µM (inactive) | 1.79 µM (inactive) | 1.73 µM (inactive) | 2.04 µM (inactive)
9 | CCCCCCCCCCCCCC(=O)OCC1OC(n2cc(F)c(=O)[nH]c2=O)C(N)C(OC(=O)CCCCCCCCCCCCC)C1O (stereo unspecified) | > 100 µM (inactive) | > 100 µM (inactive) | > 100 µM (inactive) | > 100 µM (inactive) | > 100 µM (inactive) | > 100 µM (inactive) | 42.7 µM (inactive) | > 100 µM (inactive) | > 100 µM (inactive) | > 100 µM (inactive) | > 100 µM (inactive) | > 100 µM (inactive) | > 100 µM (inactive) | > 100 µM (inactive) | > 100 µM (inactive) | > 100 µM (inactive) | 
10 | COc1ccc(NC(=O)/C(Cc2nc3ccccc3nc2O)=N\O)c(OC)c1 | > 100 µM (inactive) | > 100 µM (inactive) |  | > 100 µM (inactive) | > 100 µM (inactive) | > 100 µM (inactive) | > 100 µM (inactive) | > 100 µM (inactive) | > 100 µM (inactive) | > 100 µM (inactive) | > 100 µM (inactive) | > 100 µM (inactive) | > 100 µM (inactive) | > 100 µM (inactive) | > 100 µM (inactive) | > 100 µM (inactive) | > 100 µM (inactive)
11 | O=C(Cc1ccccc1)NN1C(=O)C(Cl)C1c1cc(Br)ccc1O (stereo unspecified) | 13 µM (inactive) | 19.1 µM (inactive) | 1.04 µM (active) | 4.07 µM (inactive) | 7.45 µM (inactive) | 1.95 µM (inactive) |  | 9.46 µM (inactive) | 4.15 µM (inactive) | 7.59 µM (inactive) | 4.11 µM (inactive) | 2.76 µM (inactive) | 13.5 µM (inactive) | 3.69 µM (inactive) | 6.19 µM (inactive) | 4.34 µM (inactive) | 30 µM (inactive)
12 | COC(=O)C[C@H]1CCC2(OCCO2)[C@]1(C)C(=O)OC | > 100 µM (inactive) | > 100 µM (inactive) | > 100 µM (inactive) | > 100 µM (inactive) | > 100 µM (inactive) | > 100 µM (inactive) | > 100 µM (inactive) |  | > 100 µM (inactive) | > 100 µM (inactive) | > 100 µM (inactive) | > 100 µM (inactive) | > 100 µM (inactive) | > 100 µM (inactive) | > 100 µM (inactive) | > 100 µM (inactive) | 
13 | Cc1cc(-c2ccccc2)cc2[n+]1CC=C2.[O-][Cl+3]([O-])([O-])[O-] | > 100 µM (inactive) | 46.1 µM (inactive) |  |  | 39.4 µM (inactive) | > 100 µM (inactive) | > 100 µM (inactive) | > 100 µM (inactive) | > 100 µM (inactive) |  | > 100 µM (inactive) | 51.4 µM (inactive) | 75 µM (inactive) | > 100 µM (inactive) | > 100 µM (inactive) | > 100 µM (inactive) | 45.6 µM (inactive)
14 | CN(C)CCC(=O)/C=C\c1ccccc1 | 18.3 µM (inactive) | 15.6 µM (inactive) | 13.5 µM (inactive) |  | 17.6 µM (inactive) |  | 16.8 µM (inactive) |  | 14.3 µM (inactive) | 17.6 µM (inactive) | 18.5 µM (inactive) | 18.2 µM (inactive) | 17.1 µM (inactive) | 17.5 µM (inactive) | 20.3 µM (inactive) | 16.7 µM (inactive) | 23 µM (inactive)
15 | CC(C)(CN1CCCCC1)C(=O)/C=C/c1ccc(Br)cc1 | 0.887 µM (active) | 1.35 µM (inactive) | 2.28 µM (inactive) | 3.04 µM (inactive) |  | 2.34 µM (inactive) | 2.09 µM (inactive) | 16.5 µM (inactive) | 2.03 µM (inactive) | 4.67 µM (inactive) | 2.56 µM (inactive) | 3.4 µM (inactive) | 5.74 µM (inactive) | 2.65 µM (inactive) | 5.09 µM (inactive) | 2.29 µM (inactive) | 5.78 µM (inactive)
16 | O=C(/C=C/c1ccccc1O)c1ccccc1O | > 100 µM (inactive) | > 100 µM (inactive) | 18.7 µM (inactive) | > 100 µM (inactive) | > 100 µM (inactive) | > 100 µM (inactive) | > 100 µM (inactive) | > 100 µM (inactive) | > 100 µM (inactive) | > 100 µM (inactive) | > 100 µM (inactive) | > 100 µM (inactive) | > 100 µM (inactive) | > 100 µM (inactive) | 51.6 µM (inactive) |  | 58.9 µM (inactive)
17 | Cc1cc(Cl)cc2c1NC(=O)C2(O)CC(=O)c1ccc(F)cc1 (stereo unspecified) | > 100 µM (inactive) | 19.7 µM (inactive) |  | > 100 µM (inactive) | 47.6 µM (inactive) | 67 µM (inactive) | 40.9 µM (inactive) | 36.1 µM (inactive) | 27.7 µM (inactive) |  | 94 µM (inactive) | 32.5 µM (inactive) | 29.3 µM (inactive) | 39 µM (inactive) | 53.8 µM (inactive) | 88.5 µM (inactive) | 39.8 µM (inactive)
